Consider 17 compounds from patent US20250282799A1, “SUBSTITUTED PYRIDO[4,3-d]PYRIMIDINES AS KRAS MODULATORS” (Alterome Therapeutics, Inc., priority 2023, published 2025).

Each structure is given as a SMILES string.

In this experiment the test system is KRAS G12V dependent lung adenocarcinoma cell line, NCI-H441. Put plainly: Cellular pERK (Thr202/Tyr204) FRET/HTRF assay. It is filed as cell-based. The note with it: Homo sapiens, NCI-H441, cellular pERK (Thr202/Tyr204) HTRF, NCI-H441 cells. The procedure, abridged: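 Read-out is a wash-free FRET sandwich immunoassay for endogenous ERK1/2 phosphorylated on Thr202/Tyr204. Signal was measured in NCI-H441 lung adenocarcinoma cells after 1 hr compound exposure at 37 °C. IC50 values come from fitted concentration-response curves.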
(In general: TR-FRET usually uses a lanthanide donor and a delayed reading to cut background.)
In general, IC50 refers to the concentration that inhibits the measured activity by half. The compound `Cc1c(F)c(N)cc(-c2ncc3c(N4CCCC[C@@H]5[C@@H](F)[C@@H]54)nc(OC[C@@]45CCCN4CC(=C(F)F)C5)nc3c2F)c1C(F)(F)F` [Example 395, 5-(2-(((S)-2-(difluoromethylene)tetrahydro-1H-pyrrolizin-7a(5H)-yl)methoxy)-8-fluoro-4-((1R,7S,8R)-8-fluoro-2-azabicyclo[5.1.0]octan-2-yl)pyrido[4,3-d]pyrimidin-7-yl)-2-fluoro-3-methyl-4-(trifluoromethyl)aniline] displayed an IC50 of 500 to 10000 nM. As for `Cc1c(F)c(N)cc(-c2ncc3c(N4CCCC[C@H]5[C@H](F)[C@H]54)nc(OC[C@@]45CCCN4C/C(=C/F)C5)nc3c2F)c1C(F)(F)F` [Example 396, 2-fluoro-5-(8-fluoro-4-((1S,7R,8S)-8-fluoro-2-azabicyclo[5.1.0]octan-2-yl)-2-(((S,E)-2-(fluoromethylene)tetrahydro-1H-pyrrolizin-7a(5H)-yl)methoxy)pyrido[4,3-d]pyrimidin-7-yl)-3-methyl-4-(trifluoromethyl)aniline], the half-inhibitory concentration (IC50) was 500 to 10000 nM. For `Cc1c(F)c(N)cc(-c2ncc3c(N4CCCC[C@@H]5[C@@H](F)[C@@H]54)nc(OC[C@@]45CCCN4C/C(=C/F)C5)nc3c2F)c1C(F)(F)F` [Example 397, 2-fluoro-5-(8-fluoro-4-((1R,7S,8R)-8-fluoro-2-azabicyclo[5.1.0]octan-2-yl)-2-(((S,E)-2-(fluoromethylene)tetrahydro-1H-pyrrolizin-7a(5H)-yl)methoxy)pyrido[4,3-d]pyrimidin-7-yl)-3-methyl-4-(trifluoromethyl)aniline] the value was 500 to 10000 nM; for `Cc1c(F)c(N)cc(-c2ncc3c(N4CCCC[C@H]5[C@H](F)[C@H]54)nc(OC[C@@]45CCCN4C/C(=C\F)C5)nc3c2F)c1C(F)(F)F` [Example 398, 2-fluoro-5-(8-fluoro-4-((1S,7R,8S)-8-fluoro-2-azabicyclo[5.1.0]octan-2-yl)-2-(((S,Z)-2-(fluoromethylene)tetrahydro-1H-pyrrolizin-7a(5H)-yl)methoxy)pyrido[4,3-d]pyrimidin-7-yl)-3-methyl-4-(trifluoromethyl)aniline], 50 to 500 nM. Take `Cc1c(F)c(N)cc(-c2ncc3c(N4CCCC[C@@H]5[C@@H](F)[C@@H]54)nc(OC[C@@]45CCCN4C/C(=C\F)C5)nc3c2F)c1C(F)(F)F` [Example 399, 2-fluoro-5-(8-fluoro-4-((1R,7S,8R)-8-fluoro-2-azabicyclo[5.1.0]octan-2-yl)-2-(((S,Z)-2-(fluoromethylene)tetrahydro-1H-pyrrolizin-7a(5H)-yl)methoxy)pyrido[4,3-d]pyrimidin-7-yl)-3-methyl-4-(trifluoromethyl)aniline]: the IC50 fell in the range of 500 to 10000 nM. For `[2H]C([2H])(Oc1nc(N2CCOC[C@H]3[C@H](F)[C@H]32)c2c(O)nc(-c3cc(N)cc4ccc(F)c(C#C)c34)c(F)c2n1)[C@@]12CCCN1C[C@H](F)C2` [Example 401, 7-(3-amino-8-ethynyl-7-fluoronaphthalen-1-yl)-8-fluoro-4-((1S,7S,8S)-8-fluoro-5-oxa-2-azabicyclo[5.1.0]octan-2-yl)-2-(((2R,7aS)-2-fluorotetrahydro-1H-pyrrolizin-7a(5H)-yl)methoxy-d2)pyrido[4,3-d]pyrimidin-5-ol] the value was 500 to 10000 nM. For `C#Cc1c(F)ccc2cccc(-c3ncc4c(N5CCCC[C@H]6[C@H](F)[C@H]65)nc(OC[C@]56C/C(=C/F)CN5CCC65CC5)nc4c3F)c12` [Example 402, (R,Z)-7a′-(((7-(8-Ethynyl-7-fluoronaphthalen-1-yl)-8-fluoro-4-((1S,7R,8S)-8-fluoro-2-azabicyclo[5.1.0]octan-2-yl)pyrido[4,3-d]pyrimidin-2-yl)oxy)methyl)-6′-(fluoromethylene)hexahydrospiro[cyclopropane-1,1′-pyrrolizine]] the value was < 50 nM. On to `C#Cc1c(F)ccc2cc(N)cc(-c3ncc4c(N5CCCC[C@H]6[C@H](F)[C@H]65)nc(OC[C@]56C/C(=C\F)CN5CCC65CC5)nc4c3F)c12` [Example 403, 5-Ethynyl-6-fluoro-4-(8-fluoro-4-((1S,7R,8S)-8-fluoro-2-azabicyclo[5.1.0]octan-2-yl)-2-(((R,E)-6′-(fluoromethylene)tetrahydrospiro[cyclopropane-1,1′-pyrrolizin]-7a′(5′H)-yl)methoxy)pyrido[4,3-d]pyrimidin-7-yl)naphthalen-2-amine], for which the concentration for half-maximal inhibition (IC50) was < 50 nM. For `C#Cc1c(F)ccc2cc(N)cc(-c3ncc4c(N5CCCC[C@H]6[C@H](F)[C@H]65)nc(OC[C@]56C/C(=C/F)CN5CCC65CC5)nc4c3F)c12` [Example 404, 5-Ethynyl-6-fluoro-4-(8-fluoro-4-((1S,7R,8S)-8-fluoro-2-azabicyclo[5.1.0]octan-2-yl)-2-(((R,Z)-6′-(fluoromethylene)tetrahydrospiro[cyclopropane-1,1′-pyrrolizin]-7a′(5′H)-yl)methoxy)pyrido[4,3-d]pyrimidin-7-yl)naphthalen-2-amine] the value was < 50 nM. For `C#Cc1c(F)ccc2cccc(-c3ncc4c(N5CCCC[C@H]6[C@H](F)[C@H]65)nc(OC[C@]56CC(=C(F)F)CN5CCC65CC5)nc4c3F)c12` [Example 405, (R)-6′-(Difluoromethylene)-7a′-(((7-(8-ethynyl-7-fluoronaphthalen-1-yl)-8-fluoro-4-((1S,7R,8S)-8-fluoro-2-azabicyclo[5.1.0]octan-2-yl)pyrido[4,3-d]pyrimidin-2-yl)oxy)methyl)hexahydrospiro[cyclopropane-1,1′-pyrrolizine]] the value was < 50 nM; for `Nc1cc(Cl)c(C(F)(F)F)c(-c2ncc3c(N4CCCC[C@H]5[C@H](F)[C@H]54)nc(OC[C@]45C/C(=C/F)CN4CCC54CC4)nc3c2F)c1` [Example 406, 3-chloro-5-(8-fluoro-4-((1S,7R,8S)-8-fluoro-2-azabicyclo[5.1.0]octan-2-yl)-2-(((R,Z)-6′-(fluoromethylene)tetrahydrospiro [cyclopropane-1,1′-pyrrolizin]-7a′(5′H)-yl)methoxy)pyrido[4,3-d]pyrimidin-7-yl)-4-(trifluoromethyl)aniline], < 50 nM. In the case of `[2H]C([2H])(F)Oc1c(F)ccc2cccc(-c3ncc4c(N5CCCC[C@H]6[C@H](F)[C@H]65)nc(OC[C@]56CC(=C)CN5CCC65CC5)nc4c3F)c12` [Example 407, (R)-7a′-(((8-fluoro-7-(7-fluoro-8-(fluoromethoxy-d2)naphthalen-1-yl)-4-((1S,7R,8S)-8-fluoro-2-azabicyclo[5.1.0]octan-2-yl)pyrido[4,3-d]pyrimidin-2-yl)oxy)methyl)-6′-methylenehexahydrospiro[cyclopropane-1,1′-pyrrolizine]] it was < 50 nM; in that of `[2H]C([2H])(F)Oc1c(F)ccc2cccc(-c3ncc4c(N5CCCC[C@H]6[C@H](F)[C@H]65)nc(OC[C@]56C/C(=C/F)CN5CCC65CC5)nc4c3F)c12` [Example 408, (R,Z)-7a′-(((8-fluoro-7-(7-fluoro-8-(fluoromethoxy-d2)naphthalen-1-yl)-4-((1S,7R,8S)-8-fluoro-2-azabicyclo[5.1.0]octan-2-yl)pyrido[4,3-d]pyrimidin-2-yl)oxy)methyl)-6′-(fluoromethylene)hexahydrospiro [cyclopropane-1,1′-pyrrolizine]], < 50 nM; in that of `[2H]C([2H])(F)Oc1c(F)ccc2cc(N)cc(-c3ncc4c(N5CCCC[C@H]6[C@H](F)[C@H]65)nc(OC[C@]56C/C(=C/F)CN5CCC65CC5)nc4c3F)c12` [Example 409, 6-fluoro-4-(8-fluoro-4-((1S,7R,8S)-8-fluoro-2-azabicyclo[5.1.0]octan-2-yl)-2-(((R,Z)-6′-(fluoromethylene)tetrahydrospiro [cyclopropane-1,1′-pyrrolizin]-7a′(5′H)-yl)methoxy)pyrido[4,3-d]pyrimidin-7-yl)-5-(fluoromethoxy-d2)naphthalen-2-amine], < 50 nM. For the compound `[2H]C([2H])(Oc1nc(N2CCOC[C@H]3[C@H](F)[C@H]32)c2cnc(-c3cc(N)cc4ccc(C)c(C#C)c34)c(F)c2n1)[C@@]12CCCN1[C@H](C)[C@H](F)C2` [Example 410, 5-ethynyl-4-(8-fluoro-2-(((2R,3R,7aS)-2-fluoro-3-methyltetrahydro-1H-pyrrolizin-7a(5H)-yl)methoxy-d2)-4-((1S,7S,8S)-8-fluoro-5-oxa-2-azabicyclo[5.1.0]octan-2-yl)pyrido[4,3-d]pyrimidin-7-yl)-6-methylnaphthalen-2-amine], the half-maximal inhibitory concentration (IC50) is < 50 nM. For `Nc1cc(Cl)c(C(F)(F)F)c(-c2ncc3c(N4CCCC[C@H]5[C@H](F)[C@H]54)nc(OC[C@]45CC(=C(F)F)CN4CCC54CC4)nc3c2F)c1` [Example 411, 3-chloro-5-(2-(((R)-6′-(difluoromethylene)tetrahydrospiro [cyclopropane-1,1′-pyrrolizin]-7a′(5′H)-yl)methoxy)-8-fluoro-4-((1S,7R,8S)-8-fluoro-2-azabicyclo[5.1.0]octan-2-yl)pyrido[4,3-d]pyrimidin-7-yl)-4-(trifluoromethyl)aniline] the value was 500 to 10000 nM; for `Cc1c(F)c(N)cc(-c2ncc3c(N4CCCC[C@H]5[C@H](F)[C@H]54)nc(OC[C@]45CC(=C(F)F)CN4CCC54CC4)nc3c2F)c1C(F)(F)F` [Example 412, 5-(2-(((R)-6′-(difluoromethylene)tetrahydrospiro [cyclopropane-1,1′-pyrrolizin]-7a′(5′H)-yl)methoxy)-8-fluoro-4-((1S,7R,8S)-8-fluoro-2-azabicyclo[5.1.0]octan-2-yl)pyrido[4,3-d]pyrimidin-7-yl)-2-fluoro-3-methyl-4-(trifluoromethyl)aniline], 500 to 10000 nM.
